Measurements: patent US5145850A, “Imidazopyridazines, their production and use” (Takeda Chemical Industries, Ltd., priority 1990, dated 1992)

Tested on: Platelet Activating Factor (PAF)-induced bronchoconstriction
Experiment: Effect on Bronchoconstriction Induced by Platelet Activating Factor (PAF) in Guinea Pigs (Konzett-Rossler method)
Assay type: in vivo, Male Hartley guinea pigs
Settings: guinea pig; drug 10 mg/Kg orally 1 hour before PAF (1 μg/Kg, i.v.); recorded for 15 minutes
Procedure: Effect on Bronchoconstriction Induced by Platelet Activating Factor (PAF) in Guinea Pigs
Male Hartley guinea pigs (body weight 500 g) were used. The bronchoconstriction reaction in the guinea pig which has intravenously received PAF (1 μg/Kg) was measured by the Konzett-Rossler method. The trachea of the guinea pig with its back fixed was incised under anesthesia condition with urethane (intraperitoneal injection, 1.50 g/Kg) and connected with an artificial respirator via a cannula. The branch of the tracheal cannula was connected with a transducer (7020 type, Ugobasile). Air was sent to the trachea at the volume of 3-7 ml/stroke, at the stroke of 70 strokes/min. at load pressure of 10 cm H2 O to lung and overflowed air volume was recorded with Rectegraph (Recte-Hori-8s, Sanei Sokuki) via the transducer. After the guinea pig was treated with galamine (1 mg/Kg, i.v.), PAF (1 μg/Kg) dissolved in a physiological saline solution was administered to the guinea pig via a jugular venous cannula and the bronchoconstriction reaction induced thereby was recorded for 15 minutes. The drug (10 mg/Kg) suspended in a 5% gum arabic solution was administered orally 1 hour before the injection of PAF.

Compared with NS(=O)(=O)CC1(COc2ccc3nccn3n2)CCCCC1 [Example 1, 6-[(2,2-pentamethylene-3-sulfamoylpropyl)oxy]imidazo[1,2-b]pyridazine], NS(=O)(=O)CC1(COc2ccc3nccn3n2)CCCC1 [Example 2, 6-[(2,2-tetramethylene-3-sulfamoylpropyl)oxy]imidazo[1,2-b]pyridazine] is higher in “Inhibition (%) of PAF-induced bronchoconstriction” value (shortened to “Inhibition (%)”): 72% for the first, 78% for the second.

Compared with NS(=O)(=O)CC1(COc2ccc3nccn3n2)CCC1 [Example 3, 6-[(2,2-trimethylene-3-sulfamoylpropyl)oxy]imidazo[1,2-b]pyridazine], NS(=O)(=O)CC1(COc2ccc3nccn3n2)CC1 [Example 4, 6-[(2,2-dimethylene-3-sulfamoylpropyl)oxy]imidazo[1,2-b]pyridazine] is lower in “Inhibition (%)” value: 58% for the first, 48% for the second.

First: NS(=O)(=O)CC1(COc2ccc3nccn3n2)COC1 [Example 9, 6-[[2,2-(2-oxatrimethylene)-3sulfamoylpropyl]oxy]imidazo[1,2-b]pyridazine]
Second: NS(=O)(=O)CC1(CSc2ccc3nccn3n2)CCC1 [Example 13, 6-[(2,2-trimethylene-3-sulfamoylpropyl)thio]imidazo[1,2-b]pyridazine]
The “Inhibition (%)” value of the first is higher: 51% for the first, 40% for the second.
